# Reference: PMC8194028, “Engineering and characterization of human β-defensin-3 and its analogues and microcin J25 peptides against Mannheimia haemolytica and bovine neutrophils” (Veterinary Research, 2021)
# Like-named read-outs stand apart in the source and are kept apart here. Positions of bridges follow the written chain, without caps; N, C: chain ends. Residues, ends and D or L forms follow the SMILES beside them. No end group written: not given here.
# Legend:
# M. haemolytica-A1 = format: cell-based, Mannheimia haemolytica; details: for No. of CFU: one of three experiments
# Procedure: Wild-type HBD3, its analogues, and MccJ25 were tested against M. haemolytica-A1 using optical density method and colony count assay. Briefly, an aliquot (5 µL) from bacteria suspension stored at −80 °C was put in 5 mL BHI broth at 37 °C for 18 h. An aliquot (10 µL) from this overnight culture was added to fresh BHI broth and incubated at 37 °C for a further 5 h to obtain mid-log phase bacteria. The culture was then centrifuged for 10 min at 800 g at 4 °C. The supernatant was discarded and the bacterial pellet was resuspended in cold, sterile sodium phosphate buffer (SPB) and washed again at 800g for 10 min at 4 °C. The pellet was resuspended in 5 mL SPB. To calculate the number of CFU/mL in the 5 h culture, six successive tenfold dilutions were made. From the last dilution 100 µL was plated in duplicate on petri dishes containing BHI agar and incubated for 24 h. After 24 h the colonies were counted in the two petri dishes and then averaged. Total number of colonies was the average number of colonies multiplied by the dilution factor.
# All assays were carried out in sterile 96-well polypropylene flat-bottomed plates using a broth microdilution method. Two-fold serial dilutions of peptide were made in SPB, and 50 µL of each concentration of peptide was added to the wells of the assay plate. […] Positive control wells contained 50 µL of the bacteria with 50 µL of 64 µg/mL ampicillin and negative control wells contained 50 µL of SPB and 50 µL bacterial suspension. Sterility control well contained 100 µL BHI broth to test and ensure that broth was not contaminated.
# The plates were sealed with aluminum foil and were incubated at 37 °C for 2 h then 50 µL of the contents of the well were pipetted on BHI agar plates and incubated for 24 h. The bactericidal activity was expressed as the MBC which is the concentration at which 99.9% of the colonies are killed and the Lethal dose 50 (LD50) at which 50% or more bacteria are killed. All experiments were run in triplicates.
# Peptides HBD3, its analogues and Mccj25 were assessed for Minimum bactericidal concentration (MBC). […] All the peptides have shown intermediate to potent killing activity towards M. haemolytica (Figures 2, 3). […] However, some published studies have taken final inoculum in the range of 10^4–10^5 cfu/mL [28].
# [1] = cited from earlier work
# Source text: In this context, antimicrobial peptides (AMPs) have received significant attention as alternatives to antibiotics. […] Recent work by the […] laboratory has shown that treatment with naturally expressed Tracheal Antimicrobial Peptide, a defensin, neither killed M. haemolytica nor prevented the development of lung disease. Coupled with the fact that M. haemolytica, in normal condition, is prevented from e ...
# bovine neutrophils [2] = experiment: Migration inhibition assay (neutrophil migration towards fMLP); format: cell-based, cattle; details: neutrophils with 50.0 μg/mL peptide in upper well; fMLP 114 nM in lower well; 20 min at 37 °C; three independent experiments
# Procedure: (§1) Neutrophils were isolated from cattle using established methods and approved by the University of Saskatchewan’s Committee on Animal Care. For each individual animal, blood was pooled into 50 mL tubes and diluted with an equal volume of PBS then 12.5 mL of the diluted blood was layered over 10 mL of Ficoll Paque PLUS (Sigma-Aldrich, St. Louis, USA) while taking care to preserve the interface between the two liquids. Following centrifugation at 400 g for 30 min at 20 °C with the brake turned off, the lymphocyte layer was discarded along with Ficoll and plasma. The pellet was washed in 20 mL PBS with centrifugation at 500 g with low brake for 10 min. The supernatant was discarded and the pellet was suspended in equal volume of sterile water and gently mixed for 20 s followed by addition of equal volume of 1.8% NaCl to restore tonicity. The mixture was centrifuged at 500 g for 10 min and followed by another washing and centrifugation at 4 °C. The resulting neutrophil pellet was resuspended in PBS. Bovine neutrophils, collected in the above manner had more than 92% purity, and their viability was greater than 95% based on Trypan blue exclusion assay. Therefore, we use the term neutrophils in the manuscript.
# Since peptides can be immunomodulatory, migration inhibition was carried out to determine if the peptides inhibit neutrophil migration. […]
# bovine neutrophils [3] = experiment: Chemotaxis assay, 48-well Boyden chamber; format: cell-based, cattle; details: peptide 50.0 μg/mL in lower well; 20 min at 37 °C; three independent experiments; ANOVA with Dunnett, P < 0.05
# Procedure: as §1
# We used fMLP ([…]) as the chemoattractant. […] The cells within the filter pores were then counted in five random fields under light microscope at 40×. […]
# [4] = peptide 0.8 μg/mL, well row A (duplicate 1), final inoculum 5 × 10^5 cfu/mL
# [5] = peptide 0.8 μg/mL, well row B (duplicate 2), final inoculum 5 × 10^5 cfu/mL
# [6] = peptide 1.6 μg/mL, well row A (duplicate 1), final inoculum 5 × 10^5 cfu/mL
# [7] = peptide 1.6 μg/mL, well row B (duplicate 2), final inoculum 5 × 10^5 cfu/mL
# [8] = peptide 3.1 μg/mL, well row A (duplicate 1), final inoculum 5 × 10^5 cfu/mL
# [9] = peptide 3.1 μg/mL, well row B (duplicate 2), final inoculum 5 × 10^5 cfu/mL
# [10] = peptide 12.5 μg/mL, well row A (duplicate 1), final inoculum 5 × 10^5 cfu/mL
# [11] = peptide 12.5 μg/mL, well row B (duplicate 2), final inoculum 5 × 10^5 cfu/mL
# [12] = peptide 25.0 μg/mL, well row A (duplicate 1), final inoculum 5 × 10^5 cfu/mL
# [13] = peptide 25.0 μg/mL, well row B (duplicate 2), final inoculum 5 × 10^5 cfu/mL
# [14] = peptide 50.0 μg/mL, well row A (duplicate 1), final inoculum 5 × 10^5 cfu/mL
# [15] = peptide 50.0 μg/mL, well row B (duplicate 2), final inoculum 5 × 10^5 cfu/mL
# [16] = peptide 100.0 μg/mL, well row A (duplicate 1), final inoculum 5 × 10^5 cfu/mL, 2 h 37 °C, 50 μL plated, 24 h
# [17] = peptide 100.0 μg/mL, well row B (duplicate 2), final inoculum 5 × 10^5 cfu/mL
Compound,No. of CFU (M. haemolytica-A1; [4]),No. of CFU (M. haemolytica-A1; [5]),No. of CFU (M. haemolytica-A1; [6]),No. of CFU (M. haemolytica-A1; [7]),No. of CFU (M. haemolytica-A1; [8]),No. of CFU (M. haemolytica-A1; [9]),No. of CFU (M. haemolytica-A1; [10]),No. of CFU (M. haemolytica-A1; [11]),No. of CFU (M. haemolytica-A1; [12]),No. of CFU (M. haemolytica-A1; [13]),No. of CFU (M. haemolytica-A1; [14]),No. of CFU (M. haemolytica-A1; [15]),No. of CFU (M. haemolytica-A1; [16]),No. of CFU (M. haemolytica-A1; [17]),MBC (M. haemolytica-A1; 2 h),further results
"CC[C@H](C)[C@H](NC(=O)CNC(=O)[C@@H](NC(=O)[C@H](Cc1ccccc1)NC(=O)[C@H](Cc1ccc(O)cc1)NC(=O)[C@@H]1CCC(=O)NCC(=O)NCC(=O)N[C@@H](C)C(=O)NCC(=O)N[C@@H](Cc2c[nH]cn2)C(=O)N[C@@H](C(C)C)C(=O)N2CCC[C@H]2C(=O)N1)C(C)C)C(=O)NCC(=O)N[C@H](C(=O)N1CCC[C@H]1C(=O)N[C@H](C(=O)N[C@@H](CO)C(=O)N[C@@H](Cc1ccccc1)C(=O)N[C@@H](Cc1ccc(O)cc1)C(=O)NCC(=O)O)[C@@H](C)CC)[C@@H](C)O [MccJ25, Microcin J25] (GGAGHVPEYFVGIGTPISFYG-OH; lactam N-8 (inferred); C-terminus assumed)",>400 CFU,>400 CFU,>400 CFU,>400 CFU,>400 CFU,>400 CFU,211 CFU,253 CFU,314 CFU,310 CFU,328 CFU,230 CFU,211 CFU,275 CFU,,"MBC (M. haemolytica-A1; concentration at which 99.9% of the CFU in the final inoculum are killed, 2 h at 37 °C in SPB/BHI, then plated on BHI agar 24 h, final inoculum 1 × 10^5 to 1 × 10^6 cfu/mL, triplicates): 100 µg/mL; LD50 (M. haemolytica-A1; lethal dose for ≥ 50% of bacteria, 2 h at 37 °C, then plated 24 h, final inoculum 1 × 10^5 to 1 × 10^6 cfu/mL, triplicates): 6.3 µg/mL; No. of CFU (M. haemolytica-A1; peptide 6.3 μg/mL, well row A (duplicate 1), final inoculum 5 × 10^5 cfu/mL): 289 CFU; No. of CFU (M. haemolytica-A1; peptide 6.3 μg/mL, well row B (duplicate 2), final inoculum 5 × 10^5 cfu/mL): 261 CFU"
"CC[C@H](C)[C@H](NC(=O)CNC(=O)[C@@H](NC(=O)[C@H](Cc1ccccc1)NC(=O)[C@H](Cc1ccc(O)cc1)NC(=O)[C@@H]1CCC(=O)NCC(=O)NCC(=O)N[C@@H](C)C(=O)NCC(=O)N[C@@H](Cc2cnc[nH]2)C(=O)N[C@@H](C(C)C)C(=O)N2CCC[C@H]2C(=O)N1)C(C)C)C(=O)NCC(=O)N[C@H](C(=O)N1CCC[C@H]1C(=O)N[C@H](C(=O)N[C@@H](CO)C(=O)N[C@@H](Cc1ccccc1)C(=O)N[C@@H](Cc1ccc(O)cc1)C(=O)NCC(=O)O)[C@@H](C)CC)[C@@H](C)O [MccJ25, Microcin J25] (GGAGHVPEYFVGIGTPISFYG-OH; lactam N-8)",,,,,,,,,,,,,,,,Stability in the presence of many proteolytic enzymes [1]: stable
KEEQIGKVSTRGRKVVRRKK-OH [HBD3 20AA analogue],>400 CFU,>400 CFU,>400 CFU,>400 CFU,376 CFU,>400 CFU,240 CFU,170 CFU,128 CFU,151 CFU,15 CFU,4 CFU,4 CFU,1 CFU,50.0 µg/mL,"Effect of peptide on neutrophil migration towards fMLP (bovine neutrophils [2]): none of the peptides inhibited migration; Chemotaxis of bovine neutrophils towards peptide (migrated neutrophils vs PBS) (bovine neutrophils [3]): chemotactic; LD50 (M. haemolytica-A1; 2 h): 3.1 µg/mL; Sensitivity of M. haemolytica to the peptide (class by MBC) (M. haemolytica-A1; MBC assay, classification of ref 28): intermediately sensitive (as intermediately sensitive if MBC levels were 10–100 μg/mL)"
RGRKVVRRKK-OH [HBD3 10AA analogue],,,,,,,,,,,,,,,6.3 µg/mL,"LD50 (M. haemolytica-A1; 18 h): ≥ 3.1 µg/mL; No. of CFU (M. haemolytica-A1; peptide 3.1 μg/mL, well row A (duplicate 1), final inoculum 10^4 cfu/mL): 7 CFU; No. of CFU (M. haemolytica-A1; peptide 3.1 μg/mL, well row B (duplicate 2), final inoculum 10^4 cfu/mL): 2 CFU; No. of CFU (M. haemolytica-A1; peptide 6.3 μg/mL, well row A (duplicate 1), final inoculum 10^4 cfu/mL): 4 CFU; No. of CFU (M. haemolytica-A1; peptide 6.3 μg/mL, well row B (duplicate 2), final inoculum 10^4 cfu/mL): 1 CFU; No. of CFU (M. haemolytica-A1; peptide 12.5 μg/mL, well row A (duplicate 1), final inoculum 10^4 cfu/mL): 4 CFU; No. of CFU (M. haemolytica-A1; peptide 12.5 μg/mL, well row B (duplicate 2), final inoculum 10^4 cfu/mL): 6 CFU; No. of CFU (M. haemolytica-A1; peptide 25.0 μg/mL, well row A (duplicate 1), final inoculum 10^4 cfu/mL): 4 CFU; No. of CFU (M. haemolytica-A1; peptide 25.0 μg/mL, well row B (duplicate 2), final inoculum 10^4 cfu/mL): 3 CFU; No. of CFU (M. haemolytica-A1; peptide 50.0 μg/mL, well row A (duplicate 1), final inoculum 10^4 cfu/mL): 4 CFU; No. of CFU (M. haemolytica-A1; peptide 50.0 μg/mL, well row B (duplicate 2), final inoculum 10^4 cfu/mL): 1 CFU; No. of CFU (M. haemolytica-A1; peptide 100.0 μg/mL, well row A (duplicate 1), final inoculum 10^4 cfu/mL): 0 CFU; No. of CFU (M. haemolytica-A1; peptide 100.0 μg/mL, well row B (duplicate 2), final inoculum 10^4 cfu/mL): 0 CFU"
